Experiments:
HIV-1 Bal [1] = experiment: Infectivity of de novo virus from pretreated, washed infected PBMCs (memory effect); format: cell-based; details: for relative titer of de novo produced virions: PBMCs pretreated 24 h at 100x EC50, washed, 24 h drug-free, titrated on TZM-bl cells with equal p24, relative to untreated control
Experimental: Figure 1 M48U1 has a memory effect on cell-associated virus. A) The Trojan Horse transmission concept was modeled in vitro using HIV-infected PBMCs which were treated for 24 h with antiretrovirals (ARVs) from different classes at 100x EC50 concentrations. Subsequently, virus production was quantified using a Gag p24 ELISA. To mimic escape from vaginal drug pressure, the infected cells were then incubated in ARV-free medium for three consecutive periods of 24 h. Infectivity of newly produced virions was determined after each period by titration in TZM-bl cells and PBMCs using equal amounts of p24. B) Production of Gag p24 by infected PBMCs during 24 h treatment with eleven ARVs: the non-nucleoside reverse transcriptase inhibitors (NNRTIs; blue) UC781 and TMC120, the nucleotide reverse transcriptase inhibitor tenofovir (PMPA; red), the entry inhibitors (grey) maraviroc (MVC), T-20, C34-chol, griffithsin (GRFT) and M48U1, the protease inhibitors (green) lopinavir (LPV) and saquinavir (SQV), and the integrase inhibitor raltegravir (RAL). Values are expressed relative to untreated control cultures and represent the mean +/− SEM of at least three independent experiments, each carried out in triplicate. C) Bal infectivity of de novo produced virus by pretreated infected PBMCs in absence of drug during three consecutive periods of 24 h. Values are expressed relative to untreated control cultures and represent the mean +/− SEM of at least three independent experiments, each carried out in triplicate. D) Infectivity of de novo produced transmitted/founder viruses REJO and THRO (subtype B) and Bal by M48U1 treated infected PBMCs in absence of drug during three consecutive periods of 24 h. Values are expressed relative to untreated control cultures. E) Infectivity of wild type (black) and M48U1-resistant (red) Bal virus produced during a 24 h period in absence of drug by pretreated infected PBMCs. Values represent the 50% Tissue Culture Infective Dose (TCID50)/ml as measured in one experiment carried out in triplicate.
(§1) PHA/IL-2 stimulated PBMCs were infected with 2 x 10^-3 multiplicity of infection (MOI) of the CCR5-tropic subtype B strain Bal for three days and subsequently washed extensively to remove the inoculum (Figure 1A). Next, cells were incubated for 24 hours with ARVs from different classes at 100x EC50 concentrations for each compound (Table 1). The virions produced from these cultures were then quantified in quadruplicate by a Gag p24 capture ELISA [18].
Next, we evaluated whether these ARVs affected the infectivity of the virus produced. PBMCs were infected as described above and were washed extensively to remove inhibitor and incubated in fresh medium for a new round of viral replication. After 24 h, supernatant was harvested, and then assessed for its ability to infect TZM-bl cells using identical viral inocula (based on equal amounts of Gag p24). The obtained viral titers were expressed as a percentage, relative to the untreated control cultures (Figure 1C). […] A smaller loss in titer was observed after treatment with the PIs saquinavir (relative titer of 47%) and lopinavir (relative titer of 14%), and the carbohydrate binding protein griffithsin (relative titer of 31%). The same samples were assayed in a multi-cycle infectivity assay with PBMCs, with similar results (Figure 1C). […]

HIV-1 Bal [2] = experiment: Antiviral EC50 in PBMCs against HIV-1 Bal; format: cell-based; details: linear regression analysis, one experiment with 6 replicates
H9+ cells = details: pretreatment of infected cells, syncytium formation; cited from earlier work
Text: We hypothesized that M48U1 associates with gp120 molecules expressed on the cell membrane of infected cells prior to viral budding. If M48U1 dissociates very slowly from its target and is retained after washing, this could cause the production of defective virions. However, if this were the case, one would expect a similar attenuation effect for the tight-binding RT inhibitors UC781 and TMC120.

HIV-1 Bal infected PBMCs = experiment: Gag p24 production by infected PBMCs during 24 h ARV treatment (p24 capture ELISA); format: cell-based; details: 24 h treatment at 100x EC50, Gag p24 capture ELISA
Experimental: Figure 1 M48U1 has a memory effect on cell-associated virus. A) The Trojan Horse transmission concept was modeled in vitro using HIV-infected PBMCs which were treated for 24 h with antiretrovirals (ARVs) from different classes at 100x EC50 concentrations. Subsequently, virus production was quantified using a Gag p24 ELISA. To mimic escape from vaginal drug pressure, the infected cells were then incubated in ARV-free medium for three consecutive periods of 24 h. Infectivity of newly produced virions was determined after each period by titration in TZM-bl cells and PBMCs using equal amounts of p24. […] Values represent the 50% Tissue Culture Infective Dose (TCID50)/ml as measured in one experiment carried out in triplicate.
as §1, with “Next, cells were incubated for 24 hours with ARVs from different classes at 100x EC50 concentrations for each compound (Table 1).” left out

[3] = Human immunodeficiency virus 1, PBMC

Row | Compound | times less infectious than virions from control cultures (HIV-1 Bal [1]; 72 hours post-exposure, TZM-bl cells and PBMCs) | relative titer of de novo produced virions (HIV-1 Bal [1]) | EC50 (HIV-1 Bal [2]) | EC50 (HIV-1 Bal [2]; [3]) | reduction in the infectivity of de novo produced virus (H9+ cells) | lower Gag p24 concentration in culture supernatant vs untreated control (HIV-1 Bal infected PBMCs)
1 | Griffithsin (GRFT): carbohydrate binding protein, binds glycans on gp120 | two | 31% | 1.5 nM |  |  | 
2 | Cc1nnc(C(=O)NC(C)(C)c2nc(C(=O)NCc3ccc(F)cc3)c(O)c(=O)n2C)o1 [Raltegravir (RLT)] |  |  |  | 18 nM |  | 
3 | Cc1cc(C)c(Nc2ccnc(Nc3ccc(C#N)cc3)n2)c(C)c1 [Dapivirine (TMC120)] |  |  |  | 5 nM |  | 
4 | C[C@H](Cn1cnc2c(N)ncnc21)OCP(=O)(O)O [Tenofovir (TFV)] |  |  |  | 4800 nM |  | 
5 | CC(C)=CCOc1cc(NC(=S)c2ccoc2C)ccc1Cl [UC781] |  | 75% |  | 35 nM | fivefold reduction | 
6 | CC(C)(C)NC(=O)[C@@H]1C[C@@H]2CCCC[C@@H]2CN1C[C@@H](O)[C@H](Cc1ccccc1)NC(=O)[C@H](CC(N)=O)NC(=O)c1ccc2ccccc2n1 [Saquinavir (SQV)] |  | 47% |  | 35 nM |  | 0.5-1 log
7 | Cc1cccc(C)c1OCC(=O)N[C@@H](Cc1ccccc1)[C@@H](O)C[C@H](Cc1ccccc1)NC(=O)[C@H](C(C)C)N1CCCNC1=O [Lopinavir (LPV)] |  | 14% |  | 40 nM |  | 0.5-1 log
